Test results from patent US20080096859A1, “Compositions and Methods for Treating Ophthalmic Diseases” (priority 2004, published 2008).
Where a name gives a salt, the structure may show the parent alone.

| melting point | SMILES |
| --- | --- |
| 154 to 156 °C | c1ccc(CNC[C@@H]2CCN(CCc3c[nH]c4ccc(Cn5cncn5)cc34)C2)cc1 (as salt: oxalate) |
| 189 to 190 °C | c1ccc(CCNC[C@@H]2CCN(CCc3c[nH]c4ccc(-n5cnnc5)cc34)C2)cc1 (as salt: oxalate) (hydrate or solvate) |
